Assay results published in publication PMC4945863, “Dual thio-digalactoside-binding modes of human galectins as the structural basis for the design of potent and selective inhibitors” (Scientific Reports, 2016).

Assays:
[1] = molecular target: T1, galectin-7 (Homo sapiens, UniProt P47929); experiment: Isothermal titration calorimetry (ITC), galectin-7; assay type: binding
T1 construct: (residues 1-136); 6xHis; made in house; host or cells: Escherichia coli BL21 (DE3)
Method: (§1) Human galectins-1, -3CRD and -7 were produced in E. coli according to previous studies.
(§2) Samples for use in ITC were diluted to appropriate concentrations in dialysate buffer (25 mM Tris-HCl pH 8.0, 300 mM NaCl and 5 mM β-mercaptoethanol) saved from the ultrafiltration step. All samples were filtered with 0.22 μm cutoff filters (Millipore) and extensively degassed with stirring prior to use. […] To avoid heating effects due to differing concentration of DMSO in the injectant and protein solutions, 5% DMSO was added to the protein. Software provided by Microcal was used for the curve fitting of the experimental data as well as for calculation of the thermodynamic data. Specifically, all ITC data were corrected for the heat of dilution of the titrant by subtracting the excess heats at high molar ratios of ligands to galectins. Binding stoichiometry, enthalpy and equilibrium association constants were determined by fitting the corrected data to a bimolecular interaction model and summarised in Table 1.
(§3) Isothermal titration calorimetry (ITC). Samples for use in ITC were diluted to appropriate concentrations in dialysate buffer (25 mM
(§4) Tris-HCl pH 8.0, 300 mM NaCl and 5 mM β-mercaptoethanol) saved from the ultrafiltration step. All samples were filtered with […] cutoff filters (Millipore) and extensively degassed with stirring prior to use.
(§5) Isothermal titration calorimetry was performed using MicroCal
(§6) Auto-iTC200 (MicroCal, INc., Northampton, MA) at 298K. […]
(§7) order to avoid heating effects due to differing concentration of DMSO in the injectant and protein solutions, 5% DMSO was added to the protein.
(§8) Software provided by Microcal was used for the curve fitting of the experimental data as well as for calculation of the thermodynamic data.
(§9) Specifically, all ITC data were corrected for the heat of dilution of the titrant by subtracting the excess heats at high molar ratios of ligands to galectins. Binding stoichiometry, enthalpy and equilibrium association constants were determined by fitting the corrected data to a bimolecular

[2] = molecular target: T2, galectin-1 (Homo sapiens, UniProt P09382); experiment: Isothermal titration calorimetry (ITC), galectin-1; assay type: binding
T2 construct: full-length galectins-1 (residues 1-135); 6xHis; made in house; host or cells: Escherichia coli BL21 (DE3)
T2 sequence (P09382 whole entry, the tested form may be a part): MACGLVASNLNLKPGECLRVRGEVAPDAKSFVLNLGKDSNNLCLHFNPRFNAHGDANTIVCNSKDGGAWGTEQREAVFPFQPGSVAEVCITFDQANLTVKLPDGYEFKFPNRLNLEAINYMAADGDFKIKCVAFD
Method: as §1, §2, §3, §4, §5, §6, §7, §8, §9

[3] = molecular target: T3, galectin-3 (Homo sapiens, UniProt P17931); experiment: Isothermal titration calorimetry (ITC), galectin-3; assay type: binding
T3 construct: CRD domain of galectin-3 (residues 113-250); 6xHis; made in house; host or cells: Escherichia coli BL21 (DE3)
T3 sequence (P17931 113-250): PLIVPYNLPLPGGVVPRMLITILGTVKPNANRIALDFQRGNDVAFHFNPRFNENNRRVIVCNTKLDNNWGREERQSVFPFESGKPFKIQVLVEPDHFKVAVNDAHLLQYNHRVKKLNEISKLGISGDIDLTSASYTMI
Method: as §1, §2, §3, §4, §5, §6, §7, §8, §9

[4] = molecular target: galectin-3; settings: cited from earlier work

T1 sequence (P47929 whole entry, the tested form may be a part): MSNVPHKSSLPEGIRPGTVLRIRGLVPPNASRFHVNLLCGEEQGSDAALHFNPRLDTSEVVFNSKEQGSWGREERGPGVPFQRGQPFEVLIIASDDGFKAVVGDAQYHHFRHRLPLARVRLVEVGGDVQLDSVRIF

| Compound | -TΔS ([1]; 298 K) | n (stoichiometry) ([1]; 298 K) | ΔG ([1]; 298 K) | ΔH ([1]; 298 K) | -TΔS ([2]; 298 K) | n (stoichiometry) ([2]; 298 K) | ΔH ([2]; 298 K) | -TΔS ([3]; ITC, 298 K) | n (stoichiometry) ([3]; ITC, 298 K) | ΔH ([3]; ITC, 298 K) | Kd ([1]; 298 K) | ΔG ([3]; ITC, 298 K) | also measured |
| --- | --- | --- | --- | --- | --- | --- | --- | --- | --- | --- | --- | --- | --- |
| OC[C@H]1O[C@@H](S[C@@H]2O[C@H](CO)[C@H](O)[C@H](O)[C@H]2O)[C@H](O)[C@@H](O)[C@H]1O [TDG, thio-digalactoside] | 3.2 ± 0.55 kcal/mol | 0.94 ± 0.02 | -4.4 ± 0.06 kcal/mol | -7.6 ± 0.55 kcal/mol | 5.9 ± 0.27 kcal/mol | 1.02 ± 0.10 | -11.6 ± 0.26 kcal/mol | 3.7 ± 0.48 kcal/mol | 1.02 ± 0.05 | -9.4 ± 0.48 kcal/mol |  |  |  |
| OC[C@H]1O[C@@H](S[C@@H]2O[C@H](CO)[C@H](O)[C@H](n3cc(-c4cccc(F)c4)nn3)[C@H]2O)[C@H](O)[C@@H](O)[C@H]1O [TAZTDG, 3-deoxy-3-(4-[m-fluorophenyl]-1H-1,2,3-triazol-1-yl)-thio-digalactoside] | 4.4 ± 0.04 kcal/mol | 0.89 ± 0.01 | -5.5 ± 0.01 kcal/mol | -10.0 ± 0.04 kcal/mol | 8.6 ± 0.51 kcal/mol | 1.06 ± 0.01 | -16.1 ± 0.51 kcal/mol | 6.4 ± 1.02 kcal/mol | 0.92 ± 0.08 | -14.7 ± 0.99 kcal/mol | 87 ± 3.21 µM | -8.3 ± 0.25 kcal/mol | Relative affinity ([1]; 298 K, relative to TDG = 1): 6.6; ΔΔH(TAZTDG–TDG) ([1]; galectin-7): -2.4 kcal/mol; Kd ([2]; 298 K): 3.24 ± 0.3 µM; ΔG ([2]; 298 K): -7.5 ± 0.05 kcal/mol; Relative affinity ([2]; 298 K, relative to TDG = 1): 20.7; ΔΔH(TAZTDG–TDG) ([2]; galectin-1): -4.5 kcal/mol; Kd ([3]; ITC, 298 K, galectin-3CRD): 0.84 ± 0.41 µM; Relative affinity ([3]; ITC, 298 K, relative to TDG = 1): 89.7; ΔΔH(TAZTDG–TDG) ([3]; ITC, galectin-3): -5.3 kcal/mol |
| 3′-(4-methoxy-2,3,5,6-tetrafluorobenzamido)-N-acetyl-lactosamine [L3] |  |  |  |  |  |  |  |  |  |  |  |  | Kd [4]: 3.3 µM |
| OC[C@H]1O[C@@H](S[C@@H]2O[C@H](CO)[C@H](O)[C@H](n3cc(-c4cccc(F)c4)nn3)[C@H]2O)[C@H](O)[C@@H](n2cc(-c3cccc(F)c3)nn2)[C@H]1O [TD139, 3,3’-deoxy-3,3’-bis-(4-[m-fluorophenyl]-1H-1,2,3-triazol-1-yl)-thio-digalactoside] | 3.2 ± 0.09 kcal/mol | 0.99 ± 0.10 | -6.1 ± 0.06 kcal/mol |  | 7.6 ± 0.43 kcal/mol | 0.96 ± 0.04 | -16.7 ± 0.40 kcal/mol | 8.3 ± 0.90 kcal/mol | 0.96 ± 0.01 | -18.2 ± 0.82 kcal/mol | 38 ± 0.71 µM | -9.9 ± 0.37 kcal/mol | difference in binding free energy ΔΔG(TD139-TDG) ([1]; galectin-7): -1.7 kcal/mol; increase in affinity compared with TDG binding ([1]; galectin-7): 15 fold; ΔΔH(TD139–TAZTDG) ([1]; galectin-7): 0.7 kcal/mol; binding enhancement compared with binding to TDG ([2]; galectin-1): ~ 300 fold; ΔΔH(TD139–TAZTDG) ([2]; galectin-1): -0.6 kcal/mol; binding enhancement compared with TDG ([3]; ITC, galectin-3): ~ 1000 fold; change in binding free energy ΔΔG(TD139-TDG) ([3]; ITC, galectin-3): -4.3 kcal/mol; enthalpy change ΔΔH(TD139-TDG) ([3]; ITC, galectin-3): -8.8 kcal/mol; entropy change –TΔΔS(TD139-TDG) ([3]; ITC, galectin-3): 4.6 kcal/mol; ΔΔH(TD139–TAZTDG) ([3]; ITC, galectin-3): -3.5 kcal/mol; increase in binding affinity compared with L3 ([3]; galectin-3, versus literature Kd of L3): 50 fold |
